Results as given in patent publication US7560529B2, “Method for producing catalytic antibodies (variants), antigens for immunization and nucleotide sequence” (FDS Pharma, priority 2001, dated 2009).

Tested on: CD4+ T-lymphocytes from SJL mice
Test: Flow cytometry of surface marker expression in T-lymphocytes of immunized SJL mice
Assay type: in vivo
From the text: To characterize the features of immune response development upon immunization with a fusion protein comprising the neuroantigen MBP, a comparative analysis of specific surface markers expression in T-lymphocytes from SJL mice that were not immunized (control), from mice immunized with the synthetic peptide MBP89-104, recombinant fusion protein gp120I-IIImbp (the product of Construct No. 15 (see FIG. 3) at two different doses and recombinant protein gp120I-III (the product of Construct No. 13 (see FIG. 3) was carried out (FIG. 11). All the immunizations were performed in parallel under identical conditions as described above. Twenty one days after the beginning of an experiment, CD4+ T-lymphocytes isolated from two mice of each group were analyzed by flow cytometry. A specific feature of SJL mice was initially low CD8+ T-cell counts.

Which “T-cell immune response by day 21 after immunization (surface markers CD11a, CD44, CD45RB, CD62-L)” value does the source give for “VVHFFKNIVTPRTPPPS [peptide MBP, encephalitogenic 89-104 peptide of the myelin basic protein, reference compound]” here?
The value was “fully developed T-cell immune response”.
